According to ChEMBL document CHEMBL1129427, “Novel AMPA receptor antagonists: synthesis and structure-activity relationships of 1-hydroxy-7-(1H-imidazol-1-yl)-6-nitro-2,3(1H,4H)- quinoxalinedione and related compounds” (J Med Chem, 1996):

Tests used:
[1] = molecular target: Glutamate receptor ionotropic, AMPA (Rattus norvegicus, UniProt P19490+P19491+P19492+P19493)
Description: Binding affinity towards Ionotropic glutamate receptor AMPA was determined in rat whole brain membrane using [3H]AMPA as radioligand

[2] = molecular target: Glutamate receptor ionotropic, kainate; assay: Binding affinity towards Ionotropic glutamate receptor kainate was determined in rat cortical membrane using [3H]KA as radioligand; type: cell membranes
[3] = molecular target: Glutamate NMDA receptor; assay: Binding affinity towards NMDA receptor was determined in rat whole brain membrane using NMDA-sensitive [3H]Glu as radioligand; type: cell membranes
[4] = molecular target: Glutamate receptor ionotropic, NMDA 1 (Rattus norvegicus, UniProt P35439); assay: Binding affinity towards glycine binding site on NMDA receptor was determined in rat whole brain membrane using strychnine-insensitive [3H]Gly as radioligand; type: cell membranes

Row | Compound | Ki [1] | other results
1 | O=c1[nH]c2cc([N+](=O)[O-])c(-n3ccnc3)cc2n(C2CCNC2)c1=O (configuration not stated) | 550 nM | –
2 | O=c1[nH]c2cc([N+](=O)[O-])c(-n3cncn3)cc2n(O)c1=O | 180 nM | –
3 | CC(C)CCn1c(=O)c(=O)[nH]c2cc([N+](=O)[O-])c(-n3ccnc3)cc21 | 230 nM | –
4 | Cc1cn(-c2cc3c(cc2[N+](=O)[O-])[nH]c(=O)c(=O)n3O)cn1 | 50 nM | –
5 | CCCCCCCCCCn1c(=O)c(=O)[nH]c2cc([N+](=O)[O-])c(-n3ccnc3)cc21 | 8900 nM | –
6 | O=c1[nH]c2cc([N+](=O)[O-])c(-n3ccnc3)cc2n(C2CCCCC2)c1=O | 110 nM | –
7 | O=c1[nH]c2cc([N+](=O)[O-])c(-n3ccnc3)cc2n(CC2CCCCC2)c1=O | 790 nM | –
8 | O=c1[nH]c2cc([N+](=O)[O-])c(-n3ccnc3)cc2n(C2CN3CCC2CC3)c1=O (configuration not stated) | 1000 nM | –
9 | O=c1[nH]c2cc([N+](=O)[O-])c(-n3ccnc3)cc2n(CCO)c1=O | 420 nM | –
10 | COn1c(=O)c(=O)[nH]c2cc([N+](=O)[O-])c(-n3ccnc3)cc21 | 380 nM | –
11 | CCOn1c(=O)c(=O)[nH]c2cc([N+](=O)[O-])c(-n3ccnc3)cc21 | 300 nM | –
12 | CN(C)CCn1c(=O)c(=O)[nH]c2cc([N+](=O)[O-])c(-n3ccnc3)cc21 | 840 nM | –
13 | O=c1[nH]c2cc(-n3ccnc3)c([N+](=O)[O-])cc2n(O)c1=O | 440 nM | –
14 | CCn1c(=O)c(=O)[nH]c2cc([N+](=O)[O-])c(-n3ccnc3)cc21 | 190 nM | –
15 | CCCn1c(=O)c(=O)[nH]c2cc([N+](=O)[O-])c(-n3ccnc3)cc21 | 140 nM | –
16 | CCCn1c(=O)c(=O)[nH]c2cc(-n3ccnc3)c([N+](=O)[O-])cc21 | 4500 nM | –
17 | O=c1[nH]c2cc([N+](=O)[O-])c(-n3ccnc3)cc2n(O)c1=O | 21 nM | Ki [2]: 630 nM; Ki [3]: 12000 nM; Ki [4]: 4200 nM
18 | Cn1c(=O)c(=O)[nH]c2cc([N+](=O)[O-])c(-n3ccnc3)cc21 | 330 nM | –
19 | O=c1[nH]c2cc(-n3ccnc3)c([N+](=O)[O-])cc2[nH]c1=O [YM-90K] | – | Ki [4]: 37000 nM
